Source: US20110245179A1, “Composition for Prevention or Treatment of Heart Failure” (priority 2008, published 2011)

How the values were obtained:
PKCβ = PKCβ (Homo sapiens, UniProt P05771); conditions: cited from earlier work
PKCδ = PKCδ (Homo sapiens, UniProt Q05655); conditions: cited from earlier work
PKCζ = molecular target: T1, PKCζ (Homo sapiens, UniProt Q05513); conditions: cited from earlier work
T1 sequence (Q05513 1-592): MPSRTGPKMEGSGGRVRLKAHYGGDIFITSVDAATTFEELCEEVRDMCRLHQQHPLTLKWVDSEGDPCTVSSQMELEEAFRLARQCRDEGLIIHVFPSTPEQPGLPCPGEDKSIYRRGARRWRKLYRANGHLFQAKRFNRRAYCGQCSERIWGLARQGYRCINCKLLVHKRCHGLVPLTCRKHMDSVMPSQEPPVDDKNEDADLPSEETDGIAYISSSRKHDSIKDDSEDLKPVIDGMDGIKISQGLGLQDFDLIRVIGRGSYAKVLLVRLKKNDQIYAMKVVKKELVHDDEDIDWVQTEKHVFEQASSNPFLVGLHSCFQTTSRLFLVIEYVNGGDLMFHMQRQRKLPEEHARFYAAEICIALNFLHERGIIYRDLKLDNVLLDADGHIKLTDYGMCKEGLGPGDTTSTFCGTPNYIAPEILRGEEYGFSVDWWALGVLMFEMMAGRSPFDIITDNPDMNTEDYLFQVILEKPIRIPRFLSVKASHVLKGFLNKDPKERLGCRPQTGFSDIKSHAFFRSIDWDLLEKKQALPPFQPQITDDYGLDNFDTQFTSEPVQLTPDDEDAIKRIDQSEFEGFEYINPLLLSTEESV

cardiac myocytes = assay: Measurement of myocardial contractility (video-based edge detection); assay type: cell-based, Sprague-Dawley (SD) rat; conditions: 100 nM for 30 minutes
From the text: The sequence of a peptide inhibitor was designed based on the experiment of Daria Mochly-Rosen^11-13. The amino acid sequences of the protein kinase C ζ (PKCζ) inhibitor are described as SEQ ID NO: 1 and SEQ ID NO: 2. They are called the pseudosubstrate region. In contrast, the amino acid sequence of the PKCα inhibitor is QLVIAN. Each peptide inhibitor is linked at the amino-end with the TAT peptide YGRKKRRQRRR via the GGG bridge. As a normal group for comparison, a peptide comprising the TAT amino acid sequence was used. Cardiac myocytes isolated from 10-week-old Sprague-Dawley (SD) rat were used to test the efficiency of the peptide inhibitor. […]
The cardiac myocytes were isolated based on the modification of the Ren's method^14. 10-week-old male SD rats (250-300 g) were used for the experiment. After injecting heparin (50 unit), the test animal was anesthetized with isoflurane and the heart was taken out immediately. The heart was connected to a pump and Tyrode's buffer [137 mM NaCl, 5.4 mM KCl, 1 mM MgCl2, 10 mM glucose, 10 mM HEPES, 10 mM 2,3-butanedione monoxime and 5 mM taurine (Sigma), pH 7.4] at 37° C. was supplied through the coronary artery. After removing blood from the heart by pumping for 5 minutes, intercellular adhesion molecules were digested by perfusing enzyme solution [collagenase type B (0.35 U/mL, Roche), hyaluronidase (0.1 mg/mL, Sigma)] through the coronary artery. After sufficient digestion through perfusion for 20 minutes, the heart was stabilized and protected from the enzymes in 0.5% BSA solution. In all the experiments, only the rod-shaped, healthy cardiac myocytes with a distinct striation pattern were used.
The entire culture procedure was carried out in a class II flow hood. Culture dishes were precoated for 1 hour with 40 µg/mL mouse laminin (BD Biosciences) at room temperature. The isolated cardiac myocytes were cultured in Dulbecco's minimal essential medium (HyClone) containing 50 units/mL penicillin, 50 μg/mL streptomycin, 5 mM taurine, […] and […]. The cardiac myocytes were stabilized for 2 hours in a 5% CO2 incubator at 37° C., and then myocardial contractility was measured.
Myocardial contractility was measured using a video-based edge detection system (IonOptix; Milton, Mass.)^15. The cultured cardiac myocytes were placed on a over slip and observed under an inverted microscope (Nikon Eclipse TE-100F). To the cardiac myocytes, Tyrode's buffer (137 mM NaCl, 5.4 mM KCl, 1 mM MgCl2, 10 mM glucose and 10 mM HEPES, pH 7.4) was continuously supplied (at 37° C., at a rate of ˜1 mL/min). The cells were stimulated with a voltage of 30 V at 1 Hz. A STIM-AT stimulator/thermostat was used. […] The motion was recorded at every 8.3 ms. The recorded motion of the cardiac myocytes was analyzed with the soft-edge software (IonOptix).

PKCδ, sequence (Q05655 whole entry): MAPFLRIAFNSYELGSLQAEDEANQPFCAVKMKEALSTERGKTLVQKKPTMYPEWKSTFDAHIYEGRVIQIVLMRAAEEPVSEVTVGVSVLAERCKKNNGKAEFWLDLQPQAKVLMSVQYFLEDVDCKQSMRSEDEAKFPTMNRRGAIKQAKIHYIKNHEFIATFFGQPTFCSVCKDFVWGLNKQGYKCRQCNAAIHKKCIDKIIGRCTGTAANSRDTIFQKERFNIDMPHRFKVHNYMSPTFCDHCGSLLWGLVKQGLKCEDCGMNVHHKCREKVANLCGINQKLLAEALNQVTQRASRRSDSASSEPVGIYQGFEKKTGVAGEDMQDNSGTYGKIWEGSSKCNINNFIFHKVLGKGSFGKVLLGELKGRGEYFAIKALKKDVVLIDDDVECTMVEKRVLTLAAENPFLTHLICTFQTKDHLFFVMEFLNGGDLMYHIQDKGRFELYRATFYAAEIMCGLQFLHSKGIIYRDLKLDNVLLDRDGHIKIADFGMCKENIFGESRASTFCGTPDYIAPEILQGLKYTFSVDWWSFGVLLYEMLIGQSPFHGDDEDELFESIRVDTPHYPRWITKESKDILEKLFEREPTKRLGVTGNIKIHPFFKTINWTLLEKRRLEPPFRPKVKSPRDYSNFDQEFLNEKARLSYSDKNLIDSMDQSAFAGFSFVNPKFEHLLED
PKCβ, sequence (P05771 whole entry, species assumed): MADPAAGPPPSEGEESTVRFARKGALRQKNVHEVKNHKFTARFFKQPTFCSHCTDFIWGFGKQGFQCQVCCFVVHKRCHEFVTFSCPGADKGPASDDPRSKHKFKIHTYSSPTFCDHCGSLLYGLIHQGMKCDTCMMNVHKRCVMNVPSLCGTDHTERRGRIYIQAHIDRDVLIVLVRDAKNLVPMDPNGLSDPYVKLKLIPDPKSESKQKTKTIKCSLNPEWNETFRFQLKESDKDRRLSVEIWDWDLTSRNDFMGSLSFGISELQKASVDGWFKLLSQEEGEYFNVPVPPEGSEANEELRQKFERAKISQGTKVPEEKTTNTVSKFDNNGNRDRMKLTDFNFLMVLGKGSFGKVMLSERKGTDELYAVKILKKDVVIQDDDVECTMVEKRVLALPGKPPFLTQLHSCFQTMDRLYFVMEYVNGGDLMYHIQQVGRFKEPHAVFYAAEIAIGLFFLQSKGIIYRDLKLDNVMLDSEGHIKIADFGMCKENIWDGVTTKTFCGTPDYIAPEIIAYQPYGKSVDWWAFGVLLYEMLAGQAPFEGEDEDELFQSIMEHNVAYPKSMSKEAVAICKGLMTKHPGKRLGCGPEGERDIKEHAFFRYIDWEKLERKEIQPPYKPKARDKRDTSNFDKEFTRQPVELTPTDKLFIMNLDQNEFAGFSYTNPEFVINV

Structure (SMILES): CCOC(=O)c1c(NC(C)=O)sc(/C(C)=N/O)c1-c1ccccc1 [Chemical Formula II, ethyl (5E)-2-acetylimino-5-[1-(hydroxyamino)ethylidene]-4-phenyl-thiophene-3-carboxylate]
- IC50 (PKCβ): > 100 µM
- IC50 (PKCδ): > 100 µM

Structure (SMILES): CCOC(=O)c1c(NC(=S)N2CCN(S(C)(=O)=O)CC2)sc(C)c1-c1ccccc1 [Chemical Formula IV]
- inhibitory effect relative to that of the compound of Chemical Formula II (PKCζ; tested at 100 μM): about 1.2 times

Structure (SMILES): CN1CCN(c2cccc3[nH]c(-c4n[nH]c5cc(-c6ccc(CN)cc6)ccc45)nc23)CC1 [Chemical Formula X]
- increase of maximal rate of contraction (cardiac myocytes): 1.2 times
- increase of maximal rate of relaxation (cardiac myocytes): 1.2 times
- increased maximal myocardial contractility as compared to the normal group (cardiac myocytes): about 1.4 times

Structure (SMILES): CN1CCN(Cc2c3ccccc3cc3ccccc23)CC1 [Chemical Formula III, 1-(anthracen-9-ylmethyl)-4-methyl-piperazine]
- IC50 (PKCβ): 50 µM
- IC50 (PKCζ): 25 µM
- IC50 (PKCδ): > 100 µM

Structure (SMILES): CN1CCN(c2cccc3[nH]c(-c4n[nH]c5cc(-c6ccc(N)cc6)ccc45)nc23)CC1 [Chemical Formula IX]
- increase of maximal rate of contraction (cardiac myocytes): ≥ 2 times
- increase of maximal rate of relaxation (cardiac myocytes): ≥ 2 times
- increased maximal myocardial contractility as compared to the normal group (cardiac myocytes): about 2.4 times
